{
  "source": "patent US11746100B2",
  "about": "(GLOBAL BLOOD THERAPEUTICS, INC., priority 2020, dated 2023)",
  "target": "T1, human ferroportin (Homo sapiens, UniProt Q9NP59)",
  "T1 construct": "luciferase reporter (read with the Nano-Glo Luciferase Assay System); expressed in transfected cells; host or cells: CHO cells, stably transfected, expression induced with doxycycline",
  "T1 sequence (Q9NP59 1-571)": "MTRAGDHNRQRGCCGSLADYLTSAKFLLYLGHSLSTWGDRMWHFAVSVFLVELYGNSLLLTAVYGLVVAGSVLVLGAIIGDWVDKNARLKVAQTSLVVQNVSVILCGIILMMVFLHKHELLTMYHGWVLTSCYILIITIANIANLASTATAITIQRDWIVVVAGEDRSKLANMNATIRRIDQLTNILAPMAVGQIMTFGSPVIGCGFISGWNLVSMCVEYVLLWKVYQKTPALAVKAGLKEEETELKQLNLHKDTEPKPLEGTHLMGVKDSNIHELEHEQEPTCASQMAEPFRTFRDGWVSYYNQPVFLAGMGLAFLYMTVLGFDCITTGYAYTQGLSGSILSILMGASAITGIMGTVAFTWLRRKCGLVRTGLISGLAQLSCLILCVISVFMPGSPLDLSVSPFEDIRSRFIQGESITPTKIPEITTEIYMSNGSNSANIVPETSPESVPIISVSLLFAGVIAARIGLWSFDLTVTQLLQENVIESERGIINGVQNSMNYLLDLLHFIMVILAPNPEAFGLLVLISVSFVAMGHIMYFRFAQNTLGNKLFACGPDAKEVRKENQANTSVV",
  "assay": "Biological in-vitro ferroportin internalization assay (luciferase reporter)",
  "format": "cell-based",
  "settings": "average pEC50; stably-transfected CHO cell line expressing human ferroportin tagged to a luciferase reporter; 6 h incubation with test compound",
  "summary_of_the_method": "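Read-out is Nano-Glo luciferase signal after 6 h compound exposure, with average pEC50 derived. Cells are a stable CHO line carrying luciferase-tagged human ferroportin, pre-loaded 24 h with ferric ammonium citrate and doxycycline-induced for 24 h.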",
  "data": [
    {"smiles": "CCN(CC(=O)NC(C)(C)C)c1nc(-c2cc(OC)ccn2)nc2c1CCC2", "note": "[Compound 126, N-tert-butyl-2-{ethyl[2-(4-methoxypyridin-2-yl)-5H,6H,7H-cyclopenta[d]pyrimidin-4-yl]amino}acetamide]", "values": [
      {"measurement": "pEC50", "value": 7.9}
    ]},
    {"smiles": "CN(CC(=O)NC(C)(C)C)c1nc(-c2cc(O[C@@H]3CCOC3)ccn2)nc2c1CCC2", "note": "[Compound 318, N-tert-butyl-2-[methyl(2-{4-[(3R)-oxolan-3-yloxy]pyridin-2-yl}-5H,6H,7H-cyclopenta[d]pyrimidin-4-yl)amino]acetamide]", "values": [
      {"measurement": "pEC50", "value": 7.9}
    ]},
    {"smiles": "O=C(CNc1nc(-c2ccccn2)nc2c1CCC2)Nc1ccccn1", "note": "[Compound 5, N-(pyridin-2-yl)-2-{[2-(pyridin-2-yl)-5H,6H,7H-cyclopenta[d]pyrimidin-4-yl]amino}acetamide]", "values": [
      {"measurement": "pEC50", "value": 6.2}
    ]},
    {"smiles": "C[C@H](C(=O)Nc1ccc(C(F)(F)F)nc1)N(C)c1nc(-c2cc3ccccc3cn2)nc2c1CCC2", "note": "[Compound 274, (2R)-2-{[2-(isoquinolin-3-yl)-5H,6H,7H-cyclopenta[d]pyrimidin-4-yl](methyl)amino}-N-[6-(trifluoromethyl)pyridin-3-yl]propanamide]", "values": [
      {"measurement": "pEC50", "value": 6.8}
    ]},
    {"smiles": "CN(CC(=O)N1CCCCC1)c1nc(-c2cc(OCCO)ccn2)nc2c1C(C)(C)CC2", "note": "[Compound 362, 2-({2-[4-(2-hydroxyethoxy)pyridin-2-yl]-5,5-dimethyl-5H,6H,7H-cyclopenta[d]pyrimidin-4-yl}(methyl)amino)-1-(piperidin-1-yl)ethan-1-one]", "values": [
      {"measurement": "pEC50", "value": 8}
    ]},
    {"smiles": "CN(CC(=O)NC(C)(C)C)c1nc(-c2ccc(OCCO)cn2)nc2c1CCC2", "note": "[Compound 40, N-tert-butyl-2-({2-[5-(2-hydroxyethoxy)pyridin-2-yl]-5H,6H,7H-cyclopenta[d]pyrimidin-4-yl}(methyl)amino)acetamide]", "values": [
      {"measurement": "pEC50", "value": 7.1}
    ]},
    {"smiles": "CC[C@@H](O)COc1ccnc(-c2nc3c(c(N(C)CC(=O)NC(C)(C)C)n2)CCC3)c1", "note": "[Compound 393, N-tert-butyl-2-[(2-{4-[(2R)-2-hydroxybutoxy]pyridin-2-yl}-5H,6H,7H-cyclopenta[d]pyrimidin-4-yl)(methyl)amino]acetamide]", "values": [
      {"measurement": "pEC50", "value": 8.1}
    ]},
    {"smiles": "CC(C)NC(=O)CN(C)c1nc(-c2cc(OCCN(C)C)ccn2)nc2c1CCC2", "note": "[Compound 428, 2-[(2-{4-[2-(dimethylamino)ethoxy]pyridin-2-yl}-5H,6H,7H-cyclopenta[d]pyrimidin-4-yl)(methyl)amino]-N-(propan-2-yl)acetamide]", "values": [
      {"measurement": "pEC50", "value": 7.5}
    ]},
    {"smiles": "CN(c1nc(-c2ccccn2)nc2c1CCC2)[C@H]1CCN(c2ccncc2)C1=O", "note": "[Compound 208, (3S)-3-{methyl[2-(pyridin-2-yl)-5H,6H,7H-cyclopenta[d]pyrimidin-4-yl]amino}-1-(pyridin-4-yl)pyrrolidin-2-one]", "values": [
      {"measurement": "pEC50", "value": 5.7}
    ]},
    {"smiles": "COc1ccnc(-c2nc3c(c(N(C)CC(=O)Nc4ccc(F)nc4)n2)CCC3)c1", "note": "[Compound 128, N-(6-fluoropyridin-3-yl)-2-{[2-(4-methoxypyridin-2-yl)-5H,6H,7H-cyclopenta[d]pyrimidin-4-yl](methyl)amino}acetamide]", "values": [
      {"measurement": "pEC50", "value": 7.4}
    ]},
    {"smiles": "CN(CC(=O)NC1(C(F)(F)F)CC1)c1nc(-c2ccccn2)nc2c1CCC2", "note": "[Compound 98, 2-{methyl[2-(pyridin-2-yl)-5H,6H,7H-cyclopenta[d]pyrimidin-4-yl]amino}-N-[1-(trifluoromethyl)cyclopropyl]acetamide]", "values": [
      {"measurement": "pEC50", "value": 7}
    ]},
    {"smiles": "CN(CC(=O)Nc1ccc2c(c1)OC(F)(F)O2)c1nc(-c2ccccn2)nc2c1CCC2", "note": "[Compound 32, N-(2,2-difluoro-2H-1,3-benzodioxol-5-yl)-2-{methyl[2-(pyridin-2-yl)-5H,6H,7H-cyclopenta[d]pyrimidin-4-yl]amino}acetamide]", "values": [
      {"measurement": "pEC50", "value": 7.2}
    ]},
    {"smiles": "Cc1cnc(-c2nc3c(c(N(C)CC(=O)NC(C)(C)C)n2)CCC3)cc1C", "note": "[Compound 60, N-tert-butyl-2-{[2-(4,5-dimethylpyridin-2-yl)-5H,6H,7H-cyclopenta[d]pyrimidin-4-yl](methyl)amino}acetamide]", "values": [
      {"measurement": "pEC50", "value": 7.6}
    ]},
    {"smiles": "COc1ccnc(-c2nc3c(c(N(C)CC(=O)Nc4ccn(C)c(=O)c4)n2)CCC3)c1", "note": "[Compound 287, 2-{[2-(4-methoxypyridin-2-yl)-5H,6H,7H-cyclopenta[d]pyrimidin-4-yl](methyl)amino}-N-(1-methyl-2-oxo-1,2-dihydropyridin-4-yl)acetamide]", "values": [
      {"measurement": "pEC50", "value": 7.2}
    ]},
    {"smiles": "COc1ccnc(-c2nc3c(c(N(C)CC(=O)N(C)C(C)(C)C)n2)CCC3)c1", "note": "[Compound 156, N-tert-butyl-2-{[2-(4-methoxypyridin-2-yl)-5H,6H,7H-cyclopenta[d]pyrimidin-4-yl](methyl)amino}-N-methylacetamide]", "values": [
      {"measurement": "pEC50", "value": 7.9}
    ]},
    {"smiles": "C[C@H](C(=O)NC(C)(C)C)N(C)c1nc(-c2cc(OC3COC3)ccn2)nc2c1CCC2", "note": "[Compound 305]", "values": [
      {"measurement": "pEC50", "value": 7.8}
    ]},
    {"smiles": "CC(C)NC(=O)CN(C)c1nc(-c2cc(OCCN3CCSCC3)ccn2)nc2c1CCC2", "note": "[Compound 505, 2-[methyl(2-{4-[2-(thiomorpholin-4-yl)ethoxy]pyridin-2-yl}-5H,6H,7H-cyclopenta[d]pyrimidin-4-yl)amino]-N-(propan-2-yl)acetamide]", "values": [
      {"measurement": "pEC50", "value": 8.8}
    ]},
    {"smiles": "COc1ccnc(-c2nc3c(c(N(C)CC(=O)Nc4cnn(C)c4)n2)CCC3)c1", "note": "[Compound 154, 2-{[2-(4-methoxypyridin-2-yl)-5H,6H,7H-cyclopenta[d]pyrimidin-4-yl](methyl)amino}-N-(1-methyl-1H-pyrazol-4-yl)acetamide]", "values": [
      {"measurement": "pEC50", "value": 7.4}
    ]},
    {"smiles": "c1ccc(-c2nc3c(c(N4CCCOCC4)n2)CCC3)nc1", "note": "[Compound 93, 4-[2-(pyridin-2-yl)-5H,6H,7H-cyclopenta[d]pyrimidin-4-yl]-1,4-oxazepane]", "values": [
      {"measurement": "pEC50", "value": 6.1}
    ]},
    {"smiles": "COc1cccc(N2CCCN(c3nc(-c4ccccn4)nc4c3CCC4)CC2)c1", "note": "[Compound 4, 1-(3-methoxyphenyl)-4-[2-(pyridin-2-yl)-5H,6H,7H-cyclopenta[d]pyrimidin-4-yl]-1,4-diazepane]", "values": [
      {"measurement": "pEC50", "value": 6.4}
    ]},
    {"smiles": "CN(CC(=O)NC(C)(C)C)c1nc(-c2cc3cn(C)nc3cn2)nc2c1CCC2", "note": "[Compound 336, N-tert-butyl-2-[methyl(2-{2-methyl-2H-pyrazolo[3,4-c]pyridin-5-yl}-5H,6H,7H-cyclopenta[d]pyrimidin-4-yl)amino]acetamide]", "values": [
      {"measurement": "pEC50", "value": 7.8}
    ]},
    {"smiles": "CC(C)(C)NC(=O)CNc1nc(-c2ccccn2)nc2c1CCCC2", "note": "[Compound 10, N-tert-butyl-2-{[2-(pyridin-2-yl)-5,6,7,8-tetrahydroquinazolin-4-yl]amino}acetamide]", "values": [
      {"measurement": "pEC50", "value": 6.6}
    ]},
    {"smiles": "CN(c1nc(-c2ccccn2)nc2c1CCC2)[C@H](COC(C)(C)C)C(=O)NC(C)(C)C", "note": "[Compound 121, (2R)-3-(tert-butoxy)-N-tert-butyl-2-{methyl[2-(pyridin-2-yl)-5H,6H,7H-cyclopenta[d]pyrimidin-4-yl]amino}propanamide]", "values": [
      {"measurement": "pEC50", "value": 7.9}
    ]},
    {"smiles": "CN(Cc1ncn(-c2cccc(F)c2)n1)c1nc(-c2cc(OCCO)ccn2)nc2c1CCC2", "note": "[Compound 351, 2-({2-[4-({[1-(3-fluorophenyl)-1H-1,2,4-triazol-3-yl]methyl}(methyl)amino)-5H,6H,7H-cyclopenta[d]pyrimidin-2-yl]pyridin-4-yl}oxy)ethan-1-ol]", "values": [
      {"measurement": "pEC50", "value": 7.6}
    ]},
    {"smiles": "CN(CC(=O)N1CCOCC1)c1nc(-c2ccccn2)nc2c1CCC2", "note": "[Compound 86, 2-{methyl[2-(pyridin-2-yl)-5H,6H,7H-cyclopenta[d]pyrimidin-4-yl]amino}-1-(morpholin-4-yl)ethan-1-one]", "values": [
      {"measurement": "pEC50", "value": 6.8}
    ]},
    {"smiles": "CCOc1ccnc(-c2nc3c(c(N(C)CC(=O)Nc4ccc(OC)nc4)n2)CCC3)c1", "note": "[Compound 223, 2-{[2-(4-ethoxypyridin-2-yl)-5H,6H,7H-cyclopenta[d]pyrimidin-4-yl](methyl)amino}-N-(6-methoxypyridin-3-yl)acetamide]", "values": [
      {"measurement": "pEC50", "value": 7.8}
    ]},
    {"smiles": "COCCOc1ccnc(-c2nc3c(c(N(C)CC(=O)NC(C)(C)C)n2)CCC3)c1", "note": "[Compound 239, N-tert-butyl-2-({2-[4-(2-methoxyethoxy)pyridin-2-yl]-5H,6H,7H-cyclopenta[d]pyrimidin-4-yl}(methyl)amino)acetamide]", "values": [
      {"measurement": "pEC50", "value": 7.8}
    ]},
    {"smiles": "CO[C@H]1CCN(CCOc2ccnc(-c3nc4c(c(N(C)CC(=O)NC(C)(C)C)n3)CCC4)c2)C1", "note": "[Compound 464, N-tert-butyl-2-{[2-(4-{2-[(3S)-3-methoxypyrrolidin-1-yl]ethoxy}pyridin-2-yl)-5H,6H,7H-cyclopenta[d]pyrimidin-4-yl](methyl)amino}acetamide]", "values": [
      {"measurement": "pEC50", "value": 8.0}
    ]},
    {"smiles": "C[C@H](C(=O)Nc1cnn(C)c1)N(C)c1nc(-c2cc(OCCO)ccn2)nc2c1CCC2", "note": "[Compound 310, (2R)-2-({2-[4-(2-hydroxyethoxy)pyridin-2-yl]-5H,6H,7H-cyclopenta[d]pyrimidin-4-yl}(methyl)amino)-N-(1-methyl-1H-pyrazol-4-yl)propanamide]", "values": [
      {"measurement": "pEC50", "value": 7.4}
    ]},
    {"smiles": "CN(CC(=O)NC(C)(C)C)c1nc(-c2cc(OCC(C)(C)O)ccn2)nc2c1CCC2", "note": "[Compound 174, N-tert-butyl-2-({2-[4-(2-hydroxy-2-methylpropoxy)pyridin-2-yl]-5H,6H,7H-cyclopenta[d]pyrimidin-4-yl}(methyl)amino)acetamide]", "values": [
      {"measurement": "pEC50", "value": 8.2}
    ]}
  ]
}
